Assay [1] deals with A549 human lung adenocarcinoma. As to the kind of experiment: A549 in vitro anti-tumor testing (MTT). In kind it is cell-based. As to the method: (§1) P388 cells can be obtained from the National Cancer Institute, Bethesda, Md., and A549 cells can be obtained from American Type Culture Collection, Rockville, Md. All cell lines are maintained in Roswell Park Memorial Institute (RPMI) medium 1640 supplemented with 10% bovine calf serum. All cell lines are cultured in plastic tissue culture flasks and kept in an incubator at 37° C. in humidified air containing 5% CO2. Prior to testing, antibiotic-free stock cultures of each of the cell lines are subcultured to 10^6 cells/ml by dilution in fresh growth medium at 2 to 3 day intervals.
Similar procedures are utilized for A549 cells which require an additional 48 hr exposure prior to MTT addition. Results are expressed as percent inhibition compared to the negative (no drug) control. Positive drug controls are included to monitor drug sensitivity of each of the cell lines. These include varying dilutions of 5-fluorouracil, adriamycin, methotrexate and vinblastine.
(§2) To quantitate the effects on cell proliferation and resulting IC50 values, 75 μl of warm growth media containing 5 mg/ml MTT is added to each well, cultures are returned to the incubator, and left undisturbed for 90 minutes. […]

Assay [2] concerns EL-4.IL-2 murine lymphoma cells. Kind of assay: EL-4 adherence testing. The class given is cell-based. The source says:
This assay is based on the properties of extracts/pure compounds which serve as protein kinase C (PKC) active agents to either induce or inhibit the adherence of EL-4.IL-2 murine lymphoma cells to plastic surfaces. The general methodology of this assay is described in detail in the following: Longley, R. E. and D. Harmody (1991) J. Antibiotics 44:93-102.

A further assay addresses T1, Aminopeptidase N (CD13) (Homo sapiens, UniProt P15144).
T1 construct: The source of Aminopeptidase N was the KG-1 cell line; endogenous in cells; host or cells: KG-1 cell lysate
As to the kind of experiment: Aminopeptidase N (CD13) ELISA capture enzyme assay. In kind it is biochemical. To be noted: 18 h; at 5 μg/ml; read-out: ApN, I. How it is done:
(§3) Each of the following assays were performed using either a Tecan 8051 or a Tecan Megaflex automated liquid handling system. Extracts of marine organisms were tested at 5 μg/ml for all assays except DPP IV and LAR which were tested at 50 μg/ml. The inhibition of enzyme activity found in the presence of extract was compared to that of an uninhibited control. Extracts which inhibited the enzyme>50% were retested in triplicate to confirm activity.
Aminopeptidase N was assayed using an Enzyme-Linked Immunosorbant (ELISA) capture assay. Briefly, 96-well plates were coated with goat anti-mouse immunoglobulins (Sigma #M4169). Following an overnight incubation the plates were washed three times with PBS-0.1% Triton X-100. The secondary (capture) antibody was then added to the plate (100 μl/well, 3.7 μg/ml; antihuman MY7, Coulter Corporation) and incubated for 3 hours at room temperature. Plates were washed three times with PBS-0.1% Triton X-100. The source of Aminopeptidase N was the KG-1 cell line, 100 μl of an appropriate dilution of the KG-1 cell lysate was added to each well, incubated for 3 hours and then washed a final time. The enzyme assay was performed in PBS in a final volume of 200 μl with 200 μM ala-pNA as substrate and either test samples or controls. Liberated p-nitroaniline was determined by the change in absorbance at 405 nm following an 18 hr incubation at 37° C.

A further assay has as its system unstimulated lymphocytes. Kind of assay: Lymphocyte viability (LCV) testing. In kind it is cell-based. The source says:
(§4) These assays measure the ability of the extracts/pure compounds to inhibit allogeneic immune responsiveness (MLR) and to affect the viability of unstimulated lymphocytes. These general methods are described in the following: Longley, R. E., D. Caddigan, D. Harmody, M. Gunasekera and S. P. Gunasekera (1991) Transplantation 52: 650-656.

For assay [3], the system named is allogeneic immune responsiveness (MLR). As to the kind of experiment: Two-way mixed lymphocyte reaction (MLR). In kind it is cell-based.
Description: as §4

For a further assay, the target named is T2, Calcineurin (Bos taurus, UniProt P48452).
T2 construct: Calcineurin was prepared from bovine brain; from tissue; host or cells: bovine brain
As to the kind of experiment: Calcineurin phosphatase assay (pNPP). In kind it is biochemical, bovine. The conditions noted are these: for inhibition at 0.5 µg/mL / inhibition at 5 µg/mL: 1 h, read-out: CaN, I; for inhibition at 0.5 µg/mL: at 0.5 μg/ml; for inhibition at 5 µg/mL: at 5 μg/ml; for IC50: pure compound, read-out: CaN, IC50 (converted).

The target of another assay is T3, CPP32 (Homo sapiens, UniProt P42574).
T3 construct: purchased BASF, Worcester, Mass
T3 sequence (P42574 29-175 limits assumed): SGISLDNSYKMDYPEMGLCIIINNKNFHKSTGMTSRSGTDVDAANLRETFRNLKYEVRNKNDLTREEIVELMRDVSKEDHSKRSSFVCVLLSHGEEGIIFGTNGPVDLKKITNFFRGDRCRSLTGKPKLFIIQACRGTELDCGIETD
T3 sequence (P42574 176-277 limits assumed): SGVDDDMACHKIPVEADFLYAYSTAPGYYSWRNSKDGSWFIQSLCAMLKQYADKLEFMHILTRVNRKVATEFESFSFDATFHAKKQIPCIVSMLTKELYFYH
Kind of assay: CPP32 enzyme assay. In kind it is biochemical. As to the method:
as §3
Test samples were aliquoted into 96 well microtiter plates and allowed to air dry. The stock CPP32 enzyme (BASF, Worcester, Mass.) was diluted by adding 10 μl of the enzyme to 17 ml of reaction buffer (50 mM Hepes pH 7.5; 10% glyccrol; 5 mM Dithiothreitol; 0.5 mM EDTA). A volume of 180 μl of the diluted enzyme was added to wells containing the dried test samples, or to empty wells (control). The contents of the microtiter wells were mixed by shaking on a plate shaker. Plates were incubated at 30° C. for 5 minutes. […] Controls for each plate consisted of an inhibitor control (50 nM DEVD-CHO final concentration); positive control (enzyme and substrate) and negative control (reaction buffer substrate). The plates were covered with aluminum foil and mixed using a plate shaker for 5 min. then incubated at 30° C. for 30 minutes. Plates were read using a plate reader with absorbance measured at 405 nm. Data was expressed as percent inhibition by comparing the absorbance values of test samples with those of the positive control (no sample).

A further assay has as its target T4, ICE (Homo sapiens, UniProt P29466).
T4 construct: purchased BASF, Worcester, Mass
T4 sequence (P29466 120-297 limits assumed): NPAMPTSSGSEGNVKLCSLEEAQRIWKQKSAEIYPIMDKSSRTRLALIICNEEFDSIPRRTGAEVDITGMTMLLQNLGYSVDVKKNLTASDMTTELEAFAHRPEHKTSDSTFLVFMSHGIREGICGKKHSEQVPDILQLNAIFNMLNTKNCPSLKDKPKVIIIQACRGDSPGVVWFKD
T4 sequence (P29466 317-404 limits assumed): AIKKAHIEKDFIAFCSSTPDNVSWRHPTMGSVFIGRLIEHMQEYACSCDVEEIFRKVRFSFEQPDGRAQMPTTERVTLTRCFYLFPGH
As to the kind of experiment: ICE enzyme assay. The class given is biochemical. How it is done: as §3
Test samples were aliquoted into 96 well microtiter plates and allowed to air dry. Stock ICE enzyme (supplied by BASF, Worcester, Mass.) was diluted in reaction buffer (50 mM Hepes pH 7.5, 10% glycerol, 5 mM dithiothreitol,0.5 mM EDTA and 5 mM β-mercaptoethanol) to a concentration that yielded a minimum increase of 0.1 optical density units after 30 minutes of reaction time. Diluted ICE enzyme was incubated at room temperature for 5 minutes prior to aliquoting 180 μl into each sample well. The plates were incubated at 30° C. for 5 minutes following a brief mixing of the well contents by shaking on a plate shaker. A volume of 20 μl of the enzyme substrate (Ac-YVAD-pNA) was added to each well resulting in a final concentration of 50 μM. […] Plates were read on a plate reader with absorbance measured at 405 nm. Data was expressed as percent inhibition by comparing the absorbance values of test samples with those of the positive control (no sample).

Another assay concerns P388 murine leukemia. Kind of assay: P388 in vitro anti-tumor testing (MTT). The class given is cell-based. The conditions noted are these: Mus musculus, 48-hr exposure. How it is done: as §1
To assess the antiproliferative effects of agents against the P388 cell line, 200 μl cultures (96 well tissue culture plates, Nunc, Denmark) are established at 1×10^5 cells/ml in drug-free medium or medium containing the test agent at 10.0, 1.0, 0.10 and 0.010 μg/ml. The solvent for all dilutions is ethanol. All experimental cultures are initiated in medium containing Gentamycin sulfate (50 μg/ml; Schering Corporation, Kenilworth, N.J.). After 48-hr exposure, P388 cells are enumerated using 3-[4,5-Dimethylthiazol-2-yl]-2,5-diphenyltetrazolium bromide (MTT) as described below.
as §2

Converted amounts (≈) assume the structure as drawn.

T1 sequence (P15144 whole entry): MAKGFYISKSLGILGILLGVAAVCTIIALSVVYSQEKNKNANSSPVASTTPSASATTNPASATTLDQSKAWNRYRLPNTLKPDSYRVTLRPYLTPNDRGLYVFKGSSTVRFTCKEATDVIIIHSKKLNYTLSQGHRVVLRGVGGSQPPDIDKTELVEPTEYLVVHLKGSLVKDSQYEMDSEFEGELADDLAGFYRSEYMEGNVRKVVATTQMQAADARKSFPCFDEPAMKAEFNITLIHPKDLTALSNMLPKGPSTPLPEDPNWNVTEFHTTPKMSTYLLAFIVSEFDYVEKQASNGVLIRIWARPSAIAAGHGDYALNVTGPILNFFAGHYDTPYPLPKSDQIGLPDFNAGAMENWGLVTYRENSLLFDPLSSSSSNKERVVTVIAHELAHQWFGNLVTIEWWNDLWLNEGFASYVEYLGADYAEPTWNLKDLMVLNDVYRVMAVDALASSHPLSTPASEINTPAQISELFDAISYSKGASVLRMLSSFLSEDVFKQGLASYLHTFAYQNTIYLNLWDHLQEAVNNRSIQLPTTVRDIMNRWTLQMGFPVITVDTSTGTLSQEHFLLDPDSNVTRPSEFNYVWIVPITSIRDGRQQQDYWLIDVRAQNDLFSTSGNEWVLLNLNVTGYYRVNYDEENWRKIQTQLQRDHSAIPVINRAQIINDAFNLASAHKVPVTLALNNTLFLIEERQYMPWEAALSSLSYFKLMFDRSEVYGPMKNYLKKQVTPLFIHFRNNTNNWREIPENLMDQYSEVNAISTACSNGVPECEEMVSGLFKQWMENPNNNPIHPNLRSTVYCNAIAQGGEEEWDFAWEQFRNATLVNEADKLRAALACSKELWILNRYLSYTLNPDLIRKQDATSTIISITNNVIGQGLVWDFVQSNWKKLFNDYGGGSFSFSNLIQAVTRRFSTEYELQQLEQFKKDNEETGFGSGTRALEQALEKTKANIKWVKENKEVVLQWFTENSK
Description for Calcineurin: Calcineurin activity was assayed in 96-well microtiter plates in a final volume of 50 μl. Each well contained 50 mM Tris-HCI pH 7.5, 0.5 mM MnCl2, 0.05 mM CaCl2, 1 mM DTT, 50 mM p-nitrophenylphosphate (pNPP), 0.3 μg calcineurin, a five-fold excess of calmodulin, and either test samples or control compounds. Plates were incubated at 30° C. for 60 min. Liberated p-nitrophenol was determined by the change in absorbance at 405 nm.

As for `N=C1C(Cl)=C(N)C(=O)c2[nH]cc(C(O)CO)c21` (stereo not drawn) [Secobatzelline A, secobatzelline A], the concentration for half-maximal inhibition (IC50) in [1] is 0.04 µg/mL; in the assay with unstimulated lymphocytes it was 1.4 µg/mL (≈ 5.48 µM); in assay [3], 0.68 µg/mL (≈ 2.66 µM); on Calcineurin, 2.15 µM; in the assay with P388 murine leukemia, 0.06 µg/mL. For the same compound, the EL-4 adherence result in assay [2] was “inh. adhesion”. For the same compound, the inhibition at 5 µg/mL came to 54.9% on Aminopeptidase N (CD13); 75% at Calcineurin; 86.5% on CPP32 (0.5 h, pH 7.5, at 5 μg/ml, read-out: CPP32, I). Further, the inhibition at 0.5 µg/mL on Calcineurin was 46%; on CPP32 (0.5 h, pH 7.5, at 0.5 μg/ml, read-out: CPP32, I), 76.2%. For the same compound, on CPP32, the “CPP32, IC50” value is 0.02 µg/mL. In addition, the ICE inhibition result against ICE is “not detected”.
Consider `NC1=C(Cl)C(=O)c2c(C(O)CO)c[nH]c2C1=O` (stereo not drawn) [Secobatzelline B, secobatzelline B], for which, in assay [1], the IC50 was found to be 2.86 µg/mL. Further, on Calcineurin, the inhibition at 0.5 µg/mL worked out at 22%, the inhibition at 5 µg/mL was 43% and the IC50 was 8.61 µM. In the assay with P388 murine leukemia, the IC50 was 1.22 µg/mL.
